Laboratory results: patent US7388016B2, “Dibenzonaphthyridine derivatives and methods of use thereof” (Wyeth, priority 2005, dated 2008)
pIC50: −log10 of the molar value.

These compounds were tested against T1, PDK-1 (Homo sapiens, UniProt O15530) (assay: In vitro PDK-1 inhibition ELISA assay (phosphorylation of SGK1 on Threonine 256)). Conditions: PDK-1 phosphorylates 6xHIS tagged SGK1, 17 minutes reaction, chemiluminescent detection.
T1 sequence (O15530 1-556): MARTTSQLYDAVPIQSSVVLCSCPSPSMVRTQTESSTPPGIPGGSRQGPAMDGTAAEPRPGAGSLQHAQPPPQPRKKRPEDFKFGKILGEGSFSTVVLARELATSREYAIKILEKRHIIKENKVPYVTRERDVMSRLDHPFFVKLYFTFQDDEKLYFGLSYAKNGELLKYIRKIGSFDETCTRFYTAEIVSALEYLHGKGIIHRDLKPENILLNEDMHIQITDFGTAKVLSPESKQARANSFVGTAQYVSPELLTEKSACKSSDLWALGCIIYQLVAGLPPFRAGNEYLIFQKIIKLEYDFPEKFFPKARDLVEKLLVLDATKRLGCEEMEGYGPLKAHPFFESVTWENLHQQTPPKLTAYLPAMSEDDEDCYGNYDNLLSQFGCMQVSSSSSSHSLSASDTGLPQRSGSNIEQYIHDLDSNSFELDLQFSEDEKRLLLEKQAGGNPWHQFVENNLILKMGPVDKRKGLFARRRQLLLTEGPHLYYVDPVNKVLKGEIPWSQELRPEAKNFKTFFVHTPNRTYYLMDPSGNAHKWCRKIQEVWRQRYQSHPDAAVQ
Assay type: biochemical
Procedure: The ability of illustrative Dibenzonaphthyridine Derivatives to inhibit PDK-1 in vitro can be determined using the ELISA assay as decribed in Kobayashi et al., Biochem. J. 339:319-328 (1999) and Park et al., EMBO J. 18:3024-3033 (1999).
In this in vitro assay, PDK-1 kinase phosphorylates SGK1 on Threonine 256. After 17 minutes, the reaction is quenched via the addition of urea. The 6×HIS tagged SGK1 is then bound to 96 well Ni-NTA HisSorb plates and the phosphorylated SGK1 is detected using rabbit derived anti-phospho SGK antibody as the primary antibody and HRP coupled anti-rabbit antibody as the secondary antibody. HRP is then detected using a Chemiluminescent Substrate.

Row | pIC50 | Structure (SMILES)
1 | 6.54 | COc1cc2c(cc1OCCC1CCCN1C)ncc1c(N)nc3c(C)c(N)ccc3c12 (centres unmarked) [Ib-25, 11-methoxy-4-methyl-10-[2-(1-methylpyrrolidin-2-yl)ethoxy]dibenzo[c,f]-2,7-naphthyridine-3,6-diamine]
2 | 5.60 | COc1cc2ncc3cnc4c(C)c(N)ccc4c3c2cc1OC [Compound I-3, 10,11-dimethoxy-4-methyldibenzo[c,f]-2,7-naphthyridin-3-amine]
3 | 7.24 | COc1cc2c(cc1OCCN1CCOCC1)ncc1c(N)nc3c(C)c(N)ccc3c12 [Ib-10, 11-methoxy-4-methyl-10-(2-morpholin-4-ylethoxy)dibenzo[c,f]-2,7-naphthyridine-3,6-diamine]
4 | 6.77 | CCOCCOc1cc2ncc3c(N)nc4c(C)c(N)ccc4c3c2cc1OC [Ib-47, 10-(2-ethoxyethoxy)-11-methoxy-4-methyldibenzo[c,f]-2,7-naphthyridine-3,6-diamine]
5 | 6.42 | COc1cc2c(cc1OCCN(C)C)ncc1c(N)nc3c(C)c(N)ccc3c12 [Ib-20, 10-[2-(dimethylamino)ethoxy]-11-methoxy-4-methyldibenzo[c,f]-2,7-naphthyridine-3,6-diamine]
6 | 6.26 | COc1cc2c(cc1NCCCN1CCN(C)CC1)ncc1c(N)nc3c(C)c(N)ccc3c12 [Ib-7, 11-methoxy-4-methyl-N^10-[3-(4-methylpiperazin-1-yl)propyl]dibenzo[c,f]-2,7-naphthyridine-3,6,10-triamine]
7 | 6.59 | COc1cc2ncc3c(N)nc4c(C)cccc4c3c2cc1OC [Ib-39, 10,11-dimethoxy-4-methyldibenzo[c,f]-2,7-naphthyridin-6-amine]
8 | 5.86 | COc1cc2c(cc1O)ncc1c(N)nc3c(C)c(N)ccc3c12 [Ib-48, 7,10-diamino-2-methoxy-9-methyldibenzo[c,f]-2,7-naphthyridin-3-ol]
9 | 6.56 | COCCOc1cc2ncc3c(N)nc4c(C)c(N)ccc4c3c2cc1OCCOC [Ib-17, 10,11-bis(2-methoxyethoxy)-4-methyldibenzo[c,f]-2,7-naphthyridine-3,6-diamine]
10 | 6.46 | COc1cc2c(cc1OCCN1CCCCCC1)ncc1c(N)nc3c(C)c(N)ccc3c12 [Ib-28, 10-(2-azepan-1-ylethoxy)-11-methoxy-4-methyldibenzo[c,f]-2,7-naphthyridine-3,6-diamine]
11 | 5.61 | COc1cc2c(cc1OCCCOCc1ccccc1)ncc1c(N)nc3c(C)c(N)ccc3c12 [Ib-42, 10-[3-(benzyloxy)propoxy]-11-methoxy-4-methyldibenzo[c,f]-2,7-naphthyridine-3,6-diamine]
12 | 6.06 | COc1cc2c(cc1OCC1CCN(C)CC1)ncc1c(N)nc3c(C)c(N)ccc3c12 [Ib-16, 11-methoxy-4-methyl-10-[(1-methylpiperidin-4-yl)methoxy]dibenzo[c,f]-2,7-naphthyridine-3,6-diamine]
13 | 6.02 | COc1cc2c(cc1OC[C@@H]1CCCN1C[C@@H]1CCCN1C)ncc1c(N)nc3c(C)c(N)ccc3c12 [Ib-44, 11-methoxy-4-methyl-10-[((2S)-1-{[(2S)-1-methylpyrrolidin-2-yl]methyl}pyrrolidin-2-yl)methoxy]dibenzo[c,f]-2,7-naphthyridine-3,6-diamine]
14 | 5.65 | COc1cc2ncc3c(N)nc4c(C)c(Cl)ccc4c3c2cc1OC [Ib-49, 3-chloro-10,11-dimethoxy-4-methyldibenzo[c,f]-2,7-naphthyridin-6-amine]
15 | 5.43 | COc1cc2c(cc1NCCN1CCCC1)ncc1c(N)nc3c(C)c(N)ccc3c12 [Ib-13, 11-methoxy-4-methyl-N^10-(2-pyrrolidin-1-ylethyl)dibenzo[c,f]-2,7-naphthyridine-3,6,10-triamine]
16 | 7.34 | COc1cc2ncc3c(N)nc4c(C)c(O)ccc4c3c2cc1OC [Ib-50, 6-amino-10,11-dimethoxy-4-methyldibenzo[c,f]-2,7-naphthyridin-3-ol]
17 | 7.31 | COc1cc2ncc3c(N)nc4c(C)c(OC)ccc4c3c2cc1OC [Ib-51, 3,10,11-trimethoxy-4-methyldibenzo[c,f]-2,7-naphthyridin-6-amine]
18 | 7.37 | COc1cc2c(cc1OCCCl)ncc1c(N)nc3c(C)c(N)ccc3c12 [Ib-18, 10-(2-chloroethoxy)-11-methoxy-4-methyldibenzo[c,f]-2,7-naphthyridine-3,6-diamine]
19 | 5.75 | COc1cc2c(cc1OCC1CCCN(C)C1)ncc1c(N)nc3c(C)c(N)ccc3c12 (centres unmarked) [Ib-34, 11-methoxy-4-methyl-10-[(1-methylpiperidin-3-yl)methoxy]dibenzo[c,f]-2,7-naphthyridine-3,6-diamine]
20 | 6.17 | COc1cc2ncc3c(N)nc4cc(N)ccc4c3c2cc1OC [Ib-38, 10,11-dimethoxydibenzo[c,f]-2,7-naphthyridine-3,6-diamine]
21 | 6.41 | COc1cc2c(cc1F)ncc1c(N)nc3c(C)c(N)ccc3c12 [Ib-4, 10-fluoro-11-methoxy-4-methyldibenzo[c,f]-2,7-naphthyridine-3,6-diamine]
22 | 5.54 | COc1cc2c(cc1OCCc1ccccn1)ncc1c(N)nc3c(C)c(N)ccc3c12 [Ib-24, 11-methoxy-4-methyl-10-(2-pyridin-2-ylethoxy)dibenzo[c,f]-2,7-naphthyridine-3,6-diamine]

Row | Structure (SMILES) | pIC50
23 | COc1cc2c(cc1OCCC(C)C)ncc1c(N)nc3c(C)c(N)ccc3c12 [Ib-40, 11-methoxy-4-methyl-10-(3-methylbutoxy)dibenzo[c,f]-2,7-naphthyridine-3,6-diamine] | 5.93
